Where “and” joins values, the source holds several entries; their conditions need not be identical. Equal entries are not always repeated.
System: 786-0 complex spheroids with HUVEC/MSC, growth % test/control
Assay: Anticancer human tumor 786-0 cell line growth inhibition [AhR];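 also: compound exposure lasted seven days before the read-out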
Settings: for viability, T/C: stronger effect = lower value
Text: Multicellular complex tumor spheroid response to aryl hydrocarbon receptor antagonists in combination with a variety of drugs and investigational agents in selected tumor cell lines
The current study was undertaken to assess response to aryl hydrocarbon receptor antagonists in combination with standard-of-care drugs and investigational agents in solid tumor complex spheroid models. Complex spheroids include a stromal component modeled by human endothelial cells (HUVEC) and fibroblasts modeled by human mesenchymal stem cells (MSCs). The concentration ranges selected for each drug and investigational agent were based upon clinically achievable concentrations if the clinical Cmax of the agent was known.
Compounds. The drugs and investigational agents: BAY 2416964 (NSC825713), GNF351 (NSC835774), CH-223191 (NSC835775), CPI-455 (NSC825282), aza-TdCyd (NSC777586), decitabine (NSC127716), belinostat (NSC758774), entinostat (NSC756642), pevonedistat (NSC761192), tazemetostat (NSC777109), talazoparib (NSC765396), olaparib (NSC753686), selinexor (NSC780203), nedisertib (M3814, NSC802822), bortezomib (NSC756655), venetoclax (NSC766270), doxorubicin (NSC123127), elimusertib (BAY189344, NSC800525), ceralasertib (AZD6738, NSC777638), TAK-243 (NSC785004), alisertib (NSC759677), etoposide (NSC141540), topotecan (NSC609699), eribulin (NSC707389), gemcitabine (NSC613327), carboplatin (NSC241240), cisplatin (NSC119875), and SN-38 (NSC673596) were obtained from the National Cancer Institute (NCI) Developmental Therapeutics Program Chemical Repository (32). The FDA-approved anticancer drug set is available from the Developmental Therapeutics Program at https://dtp.cancer.gov/organization/dscb/obtaining/available plates.htm. […] The stock solutions were prepared in dimethyl sulfoxide (DMSO, Sigma-Aldrich, St. Louis, MO, cat. D2650), except for the platinum compounds which were prepared in saline (Quality Biological, Gaithersburg, MD, cat. 114-055-101), at 800-fold the tested concentration and stored at -70 degrees C prior to their use. All drugs and investigational agents were tested over a range starting from a high concentration at or near the clinical Cmax and decreasing in half-log increments. If the clinical Cmax for an agent had not been determined, the highest concentration tested was 10 microM (Table 1).
Cell Culture. All cells were maintained in an incubator at 37 degrees C and 5% CO2 with 95% humidity. The PDC lines were cultured according to standard operating procedures established by the NCI PDMR (https://pdmr.cancer.gov). Briefly, all PDCs were thawed and cultured in Matrigel-coated flasks prepared with a working solution of 1X Ham's F-12 nutrient mix, without supplementation (Invitrogen, Waltham, MA, cat. 11765054), 100 U/mL penicillin-streptomycin (Invitrogen, cat. 15140122), and 2.5% Matrigel (Corning Inc., Corning, NY, cat. 354248) for the first three passages. All PDCs were cultured in complete DMEM/F-12 media containing advanced DMEM/F-12 (Invitrogen, cat. 12634028), 4.9% defined fetal bovine serum, heat inactivated (HyClone Laboratories Inc., Logan, UT, cat. SH30070.03HI), 389 ng/mL hydrocortisone (Sigma-Aldrich, cat. H4001), 9.7 ng/mL human EGF recombinant protein (Invitrogen, cat. PHG0313), 23.4 microg/mL adenine (Sigma-Aldrich, cat. A2786), 97.3 U/mL penicillin-streptomycin (Invitrogen, cat. 15140122), 1.9 mM L-glutamine (Invitrogen, cat. 25030081), and 9.7 microM Y-27632 dihydrochloride (Tocris Bioscience, Bristol, United Kingdom, cat. 1254). The PDCs were cultured in complete DMEM/F12 media without 10 microM Y-27632 dihydrochloride for at least two passages prior to the screen. The established cell lines NCI-H1341 and […] were cultured in DMEM/F-12, HEPES (Invitrogen, cat. 11330032), 5% defined fetal bovine serum (HyClone Laboratories Inc., cat. SH30070.03), ITS premix universal culture supplement [insulin (5 microg/mL), transferrin (5 microg/mL), and selenious acid (5 ng/mL)] […]

SMILES	IC50 (curve of compound)	viability, T/C (compound 0.0316 µM)	viability, T/C (compound 0.1 µM)	viability, T/C (compound 0.316 µM)	viability, T/C (compound 1 µM)	viability, T/C (compound 3.16 µM)	viability, T/C (compound 10 µM)	also measured
CC(C)CC(NC(=O)C(Cc1ccccc1)NC(=O)c1cnccn1)B(O)O (centres undefined)	12.3 nM and 18.4 nM and 7.53 nM	–	–	–	–	–	–	viability, T/C (compound 0.000949 µM): 100% and 102% and 98.1%; viability, T/C (compound 0.003 µM): 105% and 104% and 116%; viability, T/C (compound 0.00949 µM): 63.4% and 99.9% and 35.7%; viability, T/C (compound 0.03 µM): 3.86% and 13.5% and 0.66%; viability, T/C (compound 0.0949 µM): 0.45% and 1.34% and 0.4%; viability, T/C (compound 0.3 µM): 1.25% and 0.84% and 0.27%
CC(C)c1c(-c2ccccc2)nc2c(C#N)c[nH]n2c1=O	> 10000 nM	101% and 108% and 93.8%	106% and 99.9% and 109%	101% and 103% and 108%	105% and 101% and 100%	97.5% and 110% and 105%	99% and 98% and 97.1%	–
CC(CO)NC(=O)c1cc(-c2ccc(Cl)cc2)nn(-c2cnn(C)c2)c1=O (centres undefined)	–	–	100% [middle of 20 runs]	–	–	–	–	IC50 (compound alone, run of 08/08/2022): > 10000 nM
CC1(C)CCC(CN2CCN(c3ccc(C(=O)NS(=O)(=O)c4ccc(NCC5CCOCC5)c([N+](=O)[O-])c4)c(Oc4cnc5[nH]ccc5c4)c3)CC2)=C(c2ccc(Cl)cc2)C1	> 10000 nM	99.3% and 109% and 105%	97.5% and 98.3% and 98%	102% and 108% and 99.2%	107% and 108% and 102%	101% and 97.3% and 81.5%	61.2% and 77.3% and 77.1%	–
CC1COCCN1c1cc(-c2ccnn2C)c2ccnc(-c3ccn[nH]3)c2n1 (centres undefined)	123 nM and 209 nM and 118 nM	101% and 104% and 88.6%	56.4% and 92% and 57.7%	16.5% and 26.5% and 11.5%	4.64% and 9.13% and 3.92%	–	–	viability, T/C (compound 0.00316 µM): 104% and 102% and 103%; viability, T/C (compound 0.01 µM): 103% and 104% and 94.9%
CC1COCCN1c1cc(C2(S(C)(=N)=O)CC2)nc(-c2ccnc3[nH]ccc23)n1 (centres undefined)	4620 nM and 6580 nM and 2990 nM	110% and 102% and 98.7%	110% and 102% and 98.6%	96.8% and 101% and 93.2%	96.6% and 96.8% and 94%	64.5% and 88.2% and 47.7%	17.9% and 27.9% and 15.4%	–
CCN(c1cc(-c2ccc(CN3CCOCC3)cc2)cc(C(=O)NCc2c(C)cc(C)[nH]c2=O)c1C)C1CCOCC1	> 3000 nM	–	–	–	–	–	–	viability, T/C (compound 0.00949 µM): 100% (2×) and 106%; viability, T/C (compound 0.03 µM): 98.8% and 111% and 109%; viability, T/C (compound 0.0949 µM): 105% and 96.5% and 96.9%; viability, T/C (compound 0.3 µM): 110% and 109% and 112%; viability, T/C (compound 0.949 µM): 110% and 109% and 102%; viability, T/C (compound 3 µM): 117% and 104% and 107%
CC[C@@]1(O)C(=O)OCc2c1cc1n(c2=O)Cc2cc3c(CN(C)C)c(O)ccc3nc2-1	44.7 nM and 53.3 nM and 57 nM	64.5% and 73.7% and 85.6%	16.4% and 21.4% and 16.1%	–	–	–	–	viability, T/C (compound 0.000316 µM): 105% and 100% and 103%; viability, T/C (compound 0.001 µM): 97.3% and 102% and 104%; viability, T/C (compound 0.00316 µM): 96.1% and 107% and 98%; viability, T/C (compound 0.01 µM): 97.8% and 106% and 109%
CCc1c2c(nc3ccc(O)cc13)-c1cc3c(c(=O)n1C2)COC(=O)[C@]3(O)CC	4.77 nM and 6.31 nM and 5.45 nM	–	–	–	–	–	–	viability, T/C (compound 0.000949 µM): 86.2% and 105% and 92.8%; viability, T/C (compound 0.003 µM): 71.8% and 98.8% and 87.3%; viability, T/C (compound 0.00949 µM): 17.6% and 23.2% and 15.3%; viability, T/C (compound 0.03 µM): 5.33% and 8.68% and 6.03%; viability, T/C (compound 0.0949 µM): 2.54% and 5.4% and 3.46%; viability, T/C (compound 0.3 µM): 2.09% and 4.14% and 2.23%
COc1cc(C2c3cc4c(cc3C(OC3OC5COC(C)OC5C(O)C3O)C3COC(=O)C23)OCO4)cc(OC)c1O (centres undefined)	951 nM and 572 nM and 989 nM	101% and 104% and 103%	100% and 95.1% and 109%	75% and 74.2% and 81.8%	46.5% and 25.8% and 49%	26.6% and 22.7% and 27%	5.89% and 5.81% and 13.3%	–
COc1cc(Nc2ncc3c(n2)-c2ccc(Cl)cc2C(c2c(F)cccc2OC)=NC3)ccc1C(=O)O	3170 nM and 5260 nM and 2870 nM	94.7% and 108% and 91.5%	96% and 110% and 93.9%	98% and 122% and 107%	78.9% and 92.7% and 79.7%	50.9% and 63.2% and 48.5%	27.6% and 35% and 28.7%	–
COc1ccc([C@@H](O)c2cc(-c3ncnc4cc(N5CCOCC5)ccc34)c(F)cc2Cl)nn1	> 10000 nM	96.7% and 103% and 114%	93.2% and 100% and 104%	98.7% and 110% and 115%	84.7% and 105% and 108%	91.4% and 103% and 111%	70.2% and 91.1% and 85.7%	–

Reference: PubChem BioAssay AID1919003 (Molecular Pharmacology Branch, DTP, NCI, 2023)
